The record followed here is US9340577B2, “HLA binding motifs and peptides and their uses” (priority 1992, dated 2016).

Assay in all cases: biochemical
Holding throughout (type): binding

Assay [1] addresses HLA-A3.2 (A*0301) (Homo sapiens, UniProt P04439).
In assay [2] the target is HLA-A11 (A*1101) (Homo sapiens, UniProt P04439, A114D/D185E/E176A/F33Y/L180Q/S129P/T187R).
Assay [3] concerns the target A31 (A*3101) (Homo sapiens, UniProt P04439, A270S/D185E/E176V/E277Q/F33T/G231S/G80R/H175R/I121M/I218V/I322F/K168Q/L300P/L318F/M331R/P217A/Q94H/R138Q/T323A/T345S/T97I/V358M).
Assay [4] has as its target A*3301 (Homo sapiens, UniProt P04439, A270S/D185E/E176V/E277Q/E87N/F33T/G231S/H175R/I121M/I218V/I322F/K168Q/K210R/L300P/L318F/M331R/P217A/Q86R/Q94H/R138Q/T323A/T345S/T97I/V358M/Y195H).
In assay [5] the target is A*6801 (Homo sapiens, UniProt P04439, A269V/D185E/E176V/E277Q/E87N/F33Y/G231S/I121M/I166T/I218V/L180W/L300P/L318F/N151K/P208A/P217A/Q86R/R169H/T345S).

No end group written: not given here. Where only a bound is given, the exact number is not on record here.

The term IC50 denotes the midpoint of a concentration-inhibition curve. Low readings indicate inhibition by little substance, high ones a need for much substance.

Take GVVFGILIKK [Peptide 9012.0242]: the half-inhibitory concentration (IC50) in assay [1] was 484 nM; in assay [2] it was 17 nM; in assay [3], greater than 20000 nM; in assay [4], greater than 20000 nM; in assay [5], 146 nM.

As to GVLILALLR [Peptide 88.0338], the IC50 in assay [1] is 2880 nM; in assay [2], 56 nM; in assay [3], 2300 nM; in assay [4] it was 3890 nM; in assay [5], 943 nM.

Consider EQNEALELK [Peptide 1556.69], for which the IC50 in assay [1] was 166 nM; in assay [2], 128 nM; in assay [3], 2300 nM; in assay [4], greater than 20000 nM; in assay [5], 11800 nM.

SVAALYWYR [Peptide 88.0341]: the IC50 in assay [1] turned out to be 32 nM; in assay [2], 4.5 nM; in assay [3], 3.7 nM; in assay [4], 0.87 nM; in assay [5], 4.1 nM.

With VTIKIGGQIR [Peptide 1516.05], the IC50 is 13000 nM in assay [1]; 389 nM in assay [2]; 1140 nM in assay [3]; greater than 20000 nM in assay [4]; 46 nM in assay [5].

For the compound SQIEHWKLIR [Peptide 88.0213], the IC50 in assay [1] is 16600 nM; in assay [2], 86 nM; in assay [3], 515 nM; in assay [4], greater than 20000 nM; in assay [5], 1330 nM.

Consider CTYSPALNR [Peptide 1556.42], for which the IC50 in assay [1] stood at 27 nM; in assay [2], 9.6 nM; in assay [3] it was 17 nM; in assay [4] it was 8.6 nM; in assay [5], 19 nM.

With YQNFQNADK [Peptide 99.0371], the IC50 in assay [1] was 2710 nM; in assay [2], 177 nM; in assay [3], 44700 nM; in assay [4], greater than 18400 nM; in assay [5] it was 19800 nM.

Regarding STCMGGMNR [Peptide 1556.61], the IC50 was found to be 281 nM in assay [1]; 1100 nM in assay [2]; 157 nM in assay [3]; 17900 nM in assay [4]; 1630 nM in assay [5].

Regarding QSNPYPEPK [Peptide 9017.0070], the IC50 was 1040 nM in assay [1]; 46 nM in assay [2]; 513 nM in assay [3]; greater than 20000 nM in assay [4]; 868 nM in assay [5].

On to SVYGETLEK [Peptide 78.0291], for which the IC50 in assay [1] is 347 nM; in assay [2] it was 166 nM; in assay [3], greater than 20000 nM; in assay [4], greater than 20000 nM; in assay [5] it was 2620 nM.

As to LQLALEALNK [Peptide 88.0227], the IC50 in assay [1] is 1100 nM; in assay [2] it was 21 nM; in assay [3], 3630 nM; in assay [4], greater than 20000 nM; in assay [5], greater than 20000 nM.

Turning to QVVPPINISK [Peptide 1589.23], the half-inhibitory concentration (IC50) in assay [1] is 1280 nM; in assay [2], 11 nM; in assay [3], 1560 nM; in assay [4] it was greater than 20000 nM; in assay [5], 14 nM.

Regarding ATLESITKK [Peptide 78.0300], the IC50 in assay [1] is 56 nM; in assay [2], 18 nM; in assay [3] it was 3200 nM; in assay [4] it was greater than 20000 nM; in assay [5], 1950 nM.

As for VSIEWRLRR [Peptide 9017.0088], the IC50 in assay [1] is 338 nM; in assay [2], 6.9 nM; in assay [3], 3.1 nM; in assay [4], 29 nM; in assay [5] it was 131 nM.

Consider TQQMLQVEGR [Peptide 88.0128], for which the IC50 in assay [1] is greater than 20000 nM; in assay [2], 3000 nM; in assay [3], 354 nM; in assay [4] it was 1850 nM; in assay [5], 739 nM.

With STAAALYWYR [Peptide 1587.32], the IC50 in assay [1] is 89 nM; in assay [2], 4 nM; in assay [3], 2.4 nM; in assay [4], 28 nM; in assay [5], 4.1 nM.

VTIYYGVPVWK [Peptide 1525.03]: the IC50 in assay [1] was 42 nM; in assay [2], 2.5 nM; in assay [3] it was 534 nM; in assay [4] it was greater than 20000 nM; in assay [5], 28 nM.

As for TVNEYNTHK [Peptide 1589.36], the IC50 in assay [1] amounted to 83 nM; in assay [2], 20 nM; in assay [3], 4120 nM; in assay [4], 2730 nM; in assay [5] it was 49 nM.

For the compound LTNILNVLK [Peptide 1587.02], the IC50 in assay [1] is 221 nM; in assay [2] it was 4.6 nM; in assay [3], 210 nM; in assay [4], 2030 nM; in assay [5] it was 12 nM.

In the case of ILLLLIRFK [Peptide 88.0386], the IC50 in assay [1] was 120 nM; in assay [2] it was 1880 nM; in assay [3] it was 48 nM; in assay [4], 402 nM; in assay [5], 2500 nM.

For KLFGYSWYK [Peptide 76.0146], the IC50 in assay [1] came out at 11 nM; in assay [2] it was 7.3 nM; in assay [3], 7.3 nM; in assay [4] it was 3720 nM; in assay [5], 16 nM.

For `CSCC[C@H](NC(=O)[C@@H](N)CCCCN)C(=O)N[C@@H](Cc1ccccc1)C(=O)N[C@@H](CS)C(=O)N[C@@H](CCC(N)=O)C(=O)N[C@@H](CC(C)C)C(=O)N[C@@H](C)C(=O)N[C@@H](CCCCN)C(=O)O` [Peptide 1556.52], the IC50 was 37 nM in assay [1]; 22 nM in assay [2]; 410 nM in assay [3]; greater than 20000 nM in assay [4]; 1280 nM in assay [5].

Turning to ISYGRKKRRQK [Peptide 73.0314], the IC50 in assay [1] was 48 nM; in assay [2], 2810 nM; in assay [3] it was 3150 nM; in assay [4] it was greater than 20000 nM; in assay [5] it was 4430 nM.

Turning to VTYNSEVQR [Peptide 1589.29], the IC50 in assay [1] was 71 nM; in assay [2] it was 25 nM; in assay [3], 40 nM; in assay [4], 152 nM; in assay [5], 23 nM.

On to ISWLGLRSLK [Peptide 9012.0234], for which the IC50 in assay [1] was found to be 31 nM; in assay [2] it was 18 nM; in assay [3] it was 265 nM; in assay [4], 2500 nM; in assay [5], 39 nM.

Regarding ALTALIKPKK [Peptide 9017.0229], the IC50 in assay [1] is 529 nM; in assay [2], 430 nM; in assay [3], 901 nM; in assay [4] it was greater than 20000 nM; in assay [5] it was 2100 nM.

As for AVNKMFCQLAK [Peptide 1556.46], the IC50 in assay [1] is 55 nM; in assay [2] it was 10 nM; in assay [3], 284 nM; in assay [4], greater than 20000 nM; in assay [5], 1310 nM.

In the case of TVQVYFDGNK [Peptide 88.0202], the IC50 in assay [1] amounted to 1110 nM; in assay [2] it was 14 nM; in assay [3], 4620 nM; in assay [4] it was 15600 nM; in assay [5] it was 121 nM.

Consider FADLTVVYR [Peptide 78.0318], for which the IC50 in assay [1] was 19200 nM; in assay [2] it was 9020 nM; in assay [3], 1780 nM; in assay [4], 310 nM; in assay [5], 39 nM.

For the compound KSFLKGTPK [Peptide 88.0344], the IC50 is 16 nM in assay [1]; 23 nM in assay [2]; 22 nM in assay [3]; 16100 nM in assay [4]; 1910 nM in assay [5].

With AFDLSHFLK [Peptide 9017.0063], the IC50 is 777 nM in assay [1]; 46 nM in assay [2]; 639 nM in assay [3]; 1440 nM in assay [4]; 216 nM in assay [5].

With QTCALYWFR [Peptide 88.0361], the half-maximal inhibitory concentration (IC50) came to 1960 nM in assay [1]; 64 nM in assay [2]; 51 nM in assay [3]; 19 nM in assay [4]; 18 nM in assay [5].

Take KIKPPLPSVR [Peptide 9017.0234]: the IC50 in assay [1] was found to be 1110 nM; in assay [2], 6950 nM; in assay [3], 8.1 nM; in assay [4], 3440 nM; in assay [5], 14700 nM.

GSQPKTACNK [Peptide 9017.0202]: the IC50 in assay [1] was 472 nM; in assay [2] it was 30 nM; in assay [3], 1480 nM; in assay [4], greater than 20000 nM; in assay [5], 15800 nM.

Regarding HLFRYSWYK [Peptide 76.0171], the IC50 in assay [1] is 21 nM; in assay [2] it was 16 nM; in assay [3], 62 nM; in assay [4], 83 nM; in assay [5] it was 27 nM.

Turning to FLSQVKIPK [Peptide 1589.05], the concentration for half-maximal inhibition (IC50) in assay [1] came out at 86 nM; in assay [2], 22 nM; in assay [3], 72 nM; in assay [4], 158 nM; in assay [5] it was 48 nM.
